Laboratory results as given in US11981686B2, “Urea compound having substituent” (DAIICHI SANKYO COMPANY, LIMITED, priority 2019, dated 2024).

Target: SIRT6 enzyme (Homo sapiens, UniProt Q8N6T7)
Test: Measurement of deacetylation activity (SIRT6, AlphaLISA, H3K9(Ac) peptide)
Type: biochemical
Conditions: SIRT6 25 ng/mL, H3K9(Ac) biotin peptide 2 nM, NAD 10 μM, room temperature 30 minutes, duplicate
Method: The reaction was performed in duplicate using a white 384-well plate (3824, Corning or 6008350, PerkinElmer) at a final reaction liquid volume of 20.1 μL. As a control for calculating the enzyme activity, the enzyme-added (DMSO (+)) and enzyme-free (DMSO (−)) wells were set at n=8. Test substances (examples of final concentrations: 0.046, 0.14, 0.41, 1.2, 3.7, 11, 33, and 100 μM) at a concentration of 100 times or 0.1 μL of DMSO was dispensed into the plate and 5 μL of SIRT6 enzyme (prepared by Daiichi Sankyo RD Novare Co., Ltd., final concentration: 25 ng/mL) diluted with an assay buffer (10 mM Tris-HCl pH of 8.0, 0.1% BSA, 0.01% Tween 20, 1 mM DTT, 12.5% Glycerol) was added thereto. The enzymatic reaction was started by adding 5 μL of a mixed solution [Lys(Ac)9]-Histone H3 (1-21)-NH2, H3K9 (Ac), biotin-labeled, amide (AnaSpec, AS-64190, final concentration: 2 nM) and β-nicotinamide adenine dinucleotide (Sigma-Aldrich, N8285-15VL, final concentration: 10 μM), and the reaction was performed at room temperature for 30 minutes. 10 μL of a mixed solution of nicotinamide (Sigma-Aldrich, 72340-100G, final concentration: 100 mM) prepared with AlphaLISA Epigenetics Buffer (PerkinElmer, AL008C), AlphaLISA Anti-unmodified Histone H3 Lysine 9/Lysine 27 (H3K9/K27) Acceptor Beads (PerkinElmer, AL138, final concentration: 10 μg/mL), and AlphaScreen Streptavidin Donor beads (PerkinElmer, 6760002, final concentration: 5 μg/mL) was added thereto, the reaction was performed at room temperature for 60 minutes and then stopped, and acetylation was detected. The emission intensity was measured by EnVision (PerkinElmer).
The relative enzyme activity (%) of the test substance was calculated by the following equation. Relative enzyme activity (%)=[(emission intensity of test substance-added well−emission intensity of DMSO (−) well)/(emission intensity of DMSO (+) well−emission intensity of DMSO (−) well)]×100
The EC150 (the concentration of the compound showing a relative enzyme activity of 150%) of the test substance was calculated based on Sigmoidal dose-response (variable slope) of GraphPad Prism (GraphPad Software) using the value of the relative enzyme activity (%) at each concentration, and the results are listed in Tables 1-1 to 1-5.

Sequence of SIRT6 enzyme (Q8N6T7 whole entry, species assumed): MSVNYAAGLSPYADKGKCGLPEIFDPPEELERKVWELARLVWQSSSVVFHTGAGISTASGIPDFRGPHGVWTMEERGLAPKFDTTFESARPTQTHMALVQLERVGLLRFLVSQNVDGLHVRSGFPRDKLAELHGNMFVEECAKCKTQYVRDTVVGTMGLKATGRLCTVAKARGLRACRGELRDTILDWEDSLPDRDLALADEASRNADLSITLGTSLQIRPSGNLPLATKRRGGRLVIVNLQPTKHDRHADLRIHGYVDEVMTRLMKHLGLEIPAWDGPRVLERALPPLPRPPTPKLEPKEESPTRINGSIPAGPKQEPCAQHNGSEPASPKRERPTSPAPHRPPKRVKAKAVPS

| SMILES | EC150 (the concentration of the compound showing a relative enzyme activity of 150%) |
| --- | --- |
| Cc1ccc2oc(N3[C@@H]4COC[C@H]3c3sc(NC(=O)NCC(C)(C)O)nc3C4)nc2c1 [Example 145, N-(2-hydroxy-2-methylpropyl)-N′-[(4S,8S)-10-(5-methyl-1,3-benzoxazol-2-yl)-4,7,8,9-tetrahydro-5H-4,8-epiminooxocino[5,4-d][1,3]thiazol-2-yl]urea] | 2.2 μm |
| C[C@H](CO)NC(=O)Nc1nc2c(s1)[C@@H]1COC[C@H](C2)N1c1ncc(-c2cccc(C(F)F)c2)o1 [Example 71, N-[(4S,8S)-10-{5-[3-(difluoromethyl)phenyl]-1,3-oxazol-2-yl}-4,7,8,9-tetrahydro-5H-4,8-epiminooxocino[5,4-d][1,3]thiazol-2-yl]-N′-[(2R)-1-hydroxypropan-2-yl]urea] | 0.34 μm |
| O=C(NCc1ccnc(O)c1)Nc1nc2c(s1)[C@@H]1COC[C@H](C2)N1c1ncc(-c2cccc(OC(F)F)n2)o1 [Example 177, N-[(4S,8S)-10-{5-[6-(difluoromethoxy)pyridin-2-yl]-1,3-oxazol-2-yl}-4,7,8,9-tetrahydro-5H-4,8-epiminooxocino[5,4-d][1,3]thiazol-2-yl]-N′-[(2-hydroxypyridin-4-yl)methyl]urea] | 0.28 μm |
| CNC(=O)Nc1nc2c(s1)C1CN(C(C)=O)CC(C2)N1c1nc(-c2ccc(F)cc2)no1 (stereo not shown) [Example 19, N-{6-acetyl-10-[3-(4-fluorophenyl)-1,2,4-oxadiazol-5-yl]-4,5,6,7,8,9-hexahydro-4,8-epimino[1,3]thiazolo[5,4-d]azocin-2-yl}-N′-methylurea] | 0.60 μm |
| CN(C)c1ccc2oc(N3[C@@H]4COC[C@H]3c3sc(NC(=O)NCC(C)(C)O)nc3C4)nc2c1 [Example 41, N-{(4S,8S)-10-[5-(dimethylamino)-1,3-benzoxazol-2-yl]-4,7,8,9-tetrahydro-5H-4,8-epiminooxocino[5,4-d][1,3]thiazol-2-yl}-N′-(2-hydroxy-2-methylpropyl)urea] | 2.5 μm |
| CNC(=O)Nc1nc2c(s1)C1CN(C(C)=O)CC(C2)N1c1ncc(-c2cccc(OC)n2)o1 (stereo not shown) [Example 126, N-{6-acetyl-10-[5-(6-methoxypyridin-2-yl)-1,3-oxazol-2-yl]-4,5,6,7,8,9-hexahydro-4,8-epimino[1,3]thiazolo[5,4-d]azocin-2-yl}-N′-methylurea] | 1 μm |
| O=C(NCc1cc[nH]c(=O)c1)Nc1nc2c(s1)CN(c1nc(C3CCC(F)(F)CC3)no1)CC2 [Example 101, N-{5-[3-(4,4-difluorocyclohexyl)-1,2,4-oxadiazol-5-yl]-4,5,6,7-tetrahydro[1,3]thiazolo[5,4-c]pyridin-2-yl}-N′-[(2-oxo-1,2-dihydropyridin-4-yl)methyl]urea] | 1.1 μm |
| COc1cccc(-c2cc(N3[C@@H]4COC[C@H]3c3sc(NC(=O)N[C@@H]5CCOC5)nc3C4)no2)n1 [Example 163, N-{(4S,8S)-10-[5-(6-methoxypyridin-2-yl)-1,2-oxazol-3-yl]-4,7,8,9-tetrahydro-5H-4,8-epiminooxocino[5,4-d][1,3]thiazol-2-yl}-N′-[(3R)-oxolan-3-yl]urea] | 1.6 μm |
| CNC(=O)Nc1nc2c(s1)CN(c1nnc(-c3ccc(F)c(C)c3)o1)CC2 [Example 9, N-{5-[5-(4-fluoro-3-methylphenyl)-1,3,4-oxadiazol-2-yl]-4,5,6,7-tetrahydro[1,3]thiazolo[5,4-c]pyridin-2-yl}-N′-methylurea] | 1.2 μm |
| CNC(=O)Nc1nc2c(s1)C1COCC(C2)N1c1nc([C@H]2CC[C@@H](C(F)(F)F)CC2)no1 (stereo partly shown) [Example 6, N-methyl-N′-(10-{3-[(1s,4s)-4-(trifluoromethyl)cyclohexyl]-1,2,4-oxadiazol-5-yl}-4,7,8,9-tetrahydro-5H-4,8-epiminooxocino[5,4-d][1,3]thiazol-2-yl)urea] | 4.5 μm |
